Where “and” joins values, the source holds several entries; their conditions need not be identical. Identical values can stand only once. Entries after “also recorded” stand apart in the source; their conditions may differ.
Assays:
α-L-AFase [1] = assay: Effect of metal ions and reagents on α-L-AFase activity; assay type: biochemical, Aureobasidium pullulans
Experimental: (§1) Enzyme assay. αL-arabinofuranosidase (α-L-AFase) activity was assayed in a reaction mixture (1 ml) containing 1 mM p-nitrophenyl α-L-arabinofuranoside (pNPαAF), 50 mM acetate buffer, pH 4.5 and appropriately diluted enzyme solution. After incubation at 50° C. for 30 min, the reaction was stopped by adding ice-cold 0.5M Na2 CO3 (1 ml) and the color formed was measured at 405 nm. One unit (U) of α-L-AFase activity was defined as the amount of enzyme that liberates 1 μmol p-nitrophenol (pNP) per min in the reaction mixture under these assay conditions.
Effect of metal ions and reagents.

α-L-AFase [2] = assay: Effect of L-arabinose and other sugars on α-L-AFase activity; assay type: biochemical, Aureobasidium pullulans
Experimental: as §1
Effect of L-arabinose and other sugars.

[3] = tested on: Aureobasidium pullulans Y-21792; assay: Effect of carbon source on growth and α-L-arabinofuranosidase production in shake flasks; assay type: cell-based; conditions: for Growth (A660) / L-arabinosidase (mU/ml culture) Supernatant / L-arabinosidase (mU/ml culture) Whole broth / time of maximum enzyme production, Supernatant (figure in parenthesis) / time of maximum enzyme production, Whole broth (figure in parenthesis): carbon source 1% w/v, 28° C.; for Growth (A660): 96 h, averages of duplicates; for L-arabinosidase (mU/ml culture) Supernatant / L-arabinosidase (mU/ml culture) Whole broth: maximum in time course; for time of maximum enzyme production, Supernatant (figure in parenthesis) / time of maximum enzyme production, Whole broth (figure in parenthesis): time course over 96 h; for share of the whole culture broth α-L-AFase activity that is extracellular: cultures grown on the named carbon source
Experimental: Organism, cultivation and enzyme production. The color variant strain NRRL Y-21792 of A. pullulans (also available as NRRL Y-12974) was obtained from the ARS culture collection, NCAUR, Peoria, Ill. The medium used for seed culture and enzyme production was CCY medium (Slininger et al., 1982, Biotechnol. Bioeng., 23:371-384) with the following composition (g/L): 10 ml of solution A, 10 ml of solution B. 100 ml of solution C, 10 g of yeast extract and 10 g of oat spelt xylan. Solution A was a trace mineral solution having the following ingredients (per L): 1.1 g of CaO, 0.4 g of ZnO, 5.4 g of FeCl3.6 H2 O, 0.25 g of CuSO4. 5H2 O, 0.24 g of CoCl2. 6H2 O, 0.06 g of H3 BO3 and 13 ml of concentrated HCl. Solution B (per L) contained 10.1 g of MgO and 45 ml of concentrated HCl. Solution C (per L) contained 64 g of urea, 12 g of KH2 PO4 and 1.8 g of Na2 HPO4. Oat spelt xylan was sterilized separately. The pH of the medium was adjusted to 5.0 with 1M HCl before inoculation. A 125-ml Erlenmeyer flask containing 50 ml of medium with oat spelt xylan (1%, w/v) as a carbon source was inoculated with a loopful of cells taken from a stock slant and incubated at 28° C. on a rotary shaker (200 rpm) for 2 days. The shake flasks (250-ml Erlenmeyer flask containing 100 ml medium with 1% oat spelt xylan) were inoculated with 2 ml of this culture and cultivated on a rotary shaker (200 rpm) at 28° C. After 3 days, the cells were removed from the culture broth by centrifugation (18,000×g, 20 min). The resulting supernatant solution was used as the crude enzyme preparation.
Medium and enzyme production. The media used for seed culture and enzyme production were prepared as described in Example 1 with the exception of the particular carbon source. The shake flasks (125-ml Erlenmeyer flask containing 50 ml medium) were inoculated with 2 ml of seed culture (prepared using L-arabinose as carbon source) and cultivated on a rotary shaker (200 rpm) at 28° C. for 4 days. At intervals, ~2 ml of the whole culture broth were withdrawn, and the cells and unutilized insoluble substrates were removed from the culture broth by centrifugation (18,000×g, 20 min).
Analytical procedures. α-L-AFase activity was assayed as described in Example 1. Cell growth was monitored by measuring optical density of the culture broth at 660 nm (A660).

[4] = target: α-L-AFase from P. capsulatum; conditions: Filho et al.; read-out: Ki (competitive inhibition); cited from earlier work
[5] = tested on: α-L-AFase from A. nidulans; conditions: L-Arabinose at 80 mM; Fernandez-Espinar et al.; cited from earlier work
purified α-L-AFase [6] = assay: Substrate specificity and kinetic analysis with aryl-glycosides; assay type: biochemical, Aureobasidium pullulans; conditions: for Relative initial rate of hydrolysis (percentage of that obtained with pNPαAF): substrate 4 mM, enzyme 28 mU/ml, 15 min reaction
Experimental: as §1
(§2) Other methods. Protein was estimated by the method of Lowry et al. (1951, J. Biol. Chem., 193:265-275) with bovine serum albumin as the standard. Protein in the column effluents was monitored by measuring absorbance at 280 nm. Sodium dodecyl sulfate-polyacrylamide gel electrophoresis (SDS-PAGE) was performed on a 7.5% gel according to Laemmli (1970, Nature, 227:680-685). The molecular weight of the native enzyme was determined by gel filtration on Bio-Gel A-0.5m as described by Andrews (1965, Biochem. J., 91:595-606), using apoferritin (MW 443,000), sweet potato β-amylase (200,000), yeast alcohol dehydrogenase (150,000), bovine serum albumin (66,000) and ovalbumin (45,000) as standard proteins. […] The Km and Vmax values were determined by the double-reciprocal plot method of Lineweaver-Burk (1934, J. Am. Chem. Soc., 56:658-666) using the KINET software program. Arabinose analysis was performed by HPLC (Spectra-Physics, San Jose, Calif.) using an ion moderated partition chromatography column (Aminex HPX-87C). The column was maintained at 85° C., and the sugars were eluted with Milli-Q water at a flow rate of 0.6 ml/min. Peaks were detected by refractive index, and identified and quantified by comparison to retention times of authentic standards (L-arabinose, D-glucose, D-xylose).
Substrate specificity and kinetic analysis. Relative initial rates of hydrolysis of p-nitrophenyl-α-L-arabinopyranoside, p-nitrophenyl-β-D-glucoside, p-nitrophenyl-β-D-glucoside, p-nitrophenyl-β-D-xyloside, p-nitrophenyl-β-D-cellobioside and p-nitrophenyl-β-D-galactoside (4 mM each) by the purified α-L-AFase (28 mU/ml) were 3.4, 2.3, 1.7, 3.1, 0.0, and 0.1%, respectively (expressed as a percentage of that obtained with pNPαAF at pH 4.5 and 75° C., 15 min reaction). The rate dependence of the enzymatic reaction on the pNPαAF concentration at pH 4.5 and 75° C. followed Michaelis-Menten kinetics.

purified α-L-AFase [7] = assay: Hydrolysis of arabinan, debranched arabinan and arabinoxylans (arabinose by HPLC); assay type: biochemical, Aureobasidium pullulans
Experimental: FIG. 4. Time course of arabinan (1%, w/v) hydrolysis by purified α-L-arabinofuranosidase (0.445 U/ml) from A. pullulans Y-21792 at pH 4.5 and 50° C.
as §2, with “Arabinose analysis was performed by HPLC (Spectra-Physics, San Jose, Calif.) using an ion moderated partition chromatography column (Aminex HPX-87C). The column was maintained at 85° C., and the sugars were eluted with Milli-Q water at a flow rate of 0.6 ml/min.” left out
Hydrolysis of arabinan, debranched arabinan and arabinoxylans. […] Only arabinose was detected in the reaction product. […]

O[C@H](CS)[C@H](O)CS (racemic) [DTT, dithiothreitol, reference compound]
effect on enzyme activity (α-L-AFase [1]; 10 mM): not affected; also recorded: not inhibited

[Ca+2] [Ca^2+]
requirement of metal ion for activity (α-L-AFase [1]; 5 mM): did not require

[Co+2] [Co^2+]
requirement of metal ion for activity (α-L-AFase [1]; 0.5 mM): did not require

O=C[C@H](O)[C@@H](O)[C@@H](O)CO [L-arabinose]
inhibition of α-L-AFase activity (α-L-AFase [2]; up to 1.2M (21.6%)): substantially no inhibition; also recorded: not at all inhibitory; also recorded: not inhibited | Growth (A660) [3]: 7.6 | L-arabinosidase (mU/ml culture) Supernatant [3]: 199 mU/ml culture | L-arabinosidase (mU/ml culture) Whole broth [3]: 500 mU/ml culture | time of maximum enzyme production, Supernatant (figure in parenthesis) [3]: 48 | time of maximum enzyme production, Whole broth (figure in parenthesis) [3]: 58 | share of the whole culture broth α-L-AFase activity that is extracellular [3]: 40% | Ki [4]: 16.4 mM | reduction of the hydrolytic activity [5]: 40%

OC[C@H](O)C(O)[C@@H](O)CO [L-arabitol]
inhibition of α-L-AFase activity (α-L-AFase [2]; each at 0.11M): did not inhibit | Growth (A660) [3]: 7.2 | L-arabinosidase (mU/ml culture) Supernatant [3]: 95 mU/ml culture | L-arabinosidase (mU/ml culture) Whole broth [3]: 441 mU/ml culture | time of maximum enzyme production, Supernatant (figure in parenthesis) [3]: 48 | time of maximum enzyme production, Whole broth (figure in parenthesis) [3]: 34 | share of the whole culture broth α-L-AFase activity that is extracellular [3]: 22%

[Mg+2] [Mg^2+]
requirement of metal ion for activity (α-L-AFase [1]; 5 mM): did not require

[Mn+2] [Mn^2+]
requirement of metal ion for activity (α-L-AFase [1]; 5 mM): did not require

O=C[C@H](O)[C@@H](O)[C@H](O)CO [Xylose]
inhibition of α-L-AFase activity (α-L-AFase [2]; each at 0.11M): did not inhibit | Growth (A660) [3]: 8.0 | L-arabinosidase (mU/ml culture) Supernatant [3]: 88 mU/ml culture | L-arabinosidase (mU/ml culture) Whole broth [3]: 129 mU/ml culture | time of maximum enzyme production, Supernatant (figure in parenthesis) [3]: 48 | time of maximum enzyme production, Whole broth (figure in parenthesis) [3]: 48 | share of the whole culture broth α-L-AFase activity that is extracellular [3]: About 70%

O=C[C@H](O)[C@@H](O)[C@@H](O)[C@H](O)CO [galactose]
inhibition of α-L-AFase activity (α-L-AFase [2]; each at 0.11M): did not inhibit

O=C[C@H](O)[C@@H](O)[C@H](O)[C@H](O)CO [glucose]
inhibition of α-L-AFase activity (α-L-AFase [2]; each at 0.11M): did not inhibit

O=C[C@@H](O)[C@@H](O)[C@H](O)[C@H](O)CO [mannose]
inhibition of α-L-AFase activity (α-L-AFase [2]; each at 0.11M): did not inhibit

O=[N+]([O-])c1ccc(O[C@@H]2OC[C@H](O)[C@H](O)[C@H]2O)cc1 [p-nitrophenyl-α-L-arabinopyranoside]
Relative initial rate of hydrolysis (percentage of that obtained with pNPαAF) (purified α-L-AFase [6]; pH 4.5 and 75° C.): 3.4%

O=[N+]([O-])c1ccc(O[C@@H]2O[C@H](CO)[C@@H](O[C@@H]3O[C@H](CO)[C@@H](O)[C@H](O)[C@H]3O)[C@H](O)[C@H]2O)cc1 [p-nitrophenyl-β-D-cellobioside]
Relative initial rate of hydrolysis (percentage of that obtained with pNPαAF) (purified α-L-AFase [6]; pH 4.5 and 75° C.): 0.0%

O=[N+]([O-])c1ccc(O[C@@H]2O[C@H](CO)[C@H](O)[C@H](O)[C@H]2O)cc1 [p-nitrophenyl-β-D-galactoside]
Relative initial rate of hydrolysis (percentage of that obtained with pNPαAF) (purified α-L-AFase [6]; pH 4.5 and 75° C.): 0.1%

O=[N+]([O-])c1ccc(O[C@@H]2O[C@H](CO)[C@@H](O)[C@H](O)[C@H]2O)cc1 [p-nitrophenyl-β-D-glucoside]
Relative initial rate of hydrolysis (percentage of that obtained with pNPαAF) (purified α-L-AFase [6]; pH 4.5 and 75° C.): 2.3% and 1.7%

O=[N+]([O-])c1ccc(O[C@@H]2OC[C@@H](O)[C@H](O)[C@H]2O)cc1 [p-nitrophenyl-β-D-xyloside]
Relative initial rate of hydrolysis (percentage of that obtained with pNPαAF) (purified α-L-AFase [6]; pH 4.5 and 75° C.): 3.1%

O=C(O)c1cc[c]([Hg][Cl])cc1 [pCMB, p-chloromercuribenzoic acid, reference compound]
effect on enzyme activity (α-L-AFase [1]; 0.2 mM): not affected; also recorded: not inhibited

O=[N+]([O-])c1ccc(O[C@@H]2O[C@@H](CO)[C@H](O)[C@H]2O)cc1 [pNPαAF, p-nitrophenyl α-L-arabinofuranoside]
Vmax (purified α-L-AFase [6]; pH 4.5 and 75° C., reciprocal plot): 6.99 μmol pNP. min^-1.mg^-1 protein | Km (purified α-L-AFase [6]; pH 4.5 and 75° C., reciprocal plot, read-out: apparent Km): 260 µM | Substrate inhibition (purified α-L-AFase [6]; tested up to 8 mM): not observed; also recorded: not inhibited

OC[C@@H](O)[C@H](O)[C@@H](O)CO [xylitol]
inhibition of α-L-AFase activity (α-L-AFase [2]; each at 0.11M): did not inhibit | Growth (A660) [3]: 9.1 | L-arabinosidase (mU/ml culture) Supernatant [3]: 47 mU/ml culture | L-arabinosidase (mU/ml culture) Whole broth [3]: 94 mU/ml culture | time of maximum enzyme production, Supernatant (figure in parenthesis) [3]: 58 | time of maximum enzyme production, Whole broth (figure in parenthesis) [3]: 48

arabinogalactan
arabinose detected by HPLC as product of hydrolysis (purified α-L-AFase [7]): no arabinose was detected | Growth (A660) [3]: 3.1 | L-arabinosidase (mU/ml culture) Supernatant [3]: 9 mU/ml culture | L-arabinosidase (mU/ml culture) Whole broth [3]: 45 mU/ml culture | time of maximum enzyme production, Supernatant (figure in parenthesis) [3]: 34 | time of maximum enzyme production, Whole broth (figure in parenthesis) [3]: 34
